Read-outs that look alike come from different tables or passages of the source. Where a SMILES comes first, the peptide text is derived from it. The star is where a group is joined. X1 = CC(C)CCCC(C)C1CCC2C3CC=C4CC(OC(=O)CCC(=O)*)CCC4(C)C3CCC12C
Columns and labels:
[1] = Cytotoxicity test in HEp-2 cells (CCK8 cell viability); assay type: cell-based; conditions: human
In short: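 HEp-2 cells seeded at 30,000/well, cultured overnight at 37° C./5% CO2, then exposed to diluted compound for 1 day in 0.5% DMSO. Viability read by CCK8, normalised to untreated-cell and medium-only controls; CC50 from four-parameter variable-slope fit.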

RSV A long virus strain = assay type: cell-based
In short: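 HEp-2 cells (30000/well) infected with 100 PFU virus premixed 1 h with compound (8 concentrations, duplicate); after 2 h adsorption, cultured 1 day at 37 °C under 0.8% CMC overlay with compound. Plaques immunostained (RSV antibody, TrueBlue) and counted; IC50 and CC50 by non-linear fitting of % inhibition versus virus and cell controls.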

[2] = HEp-2 cells, CCK8, 1 day, read-out: CC50
[3] = RSV A long virus strain, HEp-2 cells, plaque reduction, 1 day, read-out: IC50

IC50 (RSV A long virus strain) [µM] | Compound | CC50 at 1 day [1, 2] [µM] | IC50 (RSV A long virus strain; [3]) [µM] | CC50 at 1 day [1] [µM]
– | CC[C@H](C)[C@H](NC(C)=O)C(=O)N[C@@H](CCC(=O)O)C(=O)N[C@@H](CCC(N)=O)C(=O)N[C@H](C(=O)N[C@@H](CC(N)=O)C(=O)N[C@@H](CCCCN)C(=O)N[C@@H](CCCCN)C(=O)N[C@H](C(=O)N[C@@H](CCC(=O)O)C(=O)N[C@@H](CCC(N)=O)C(=O)N[C@@H](CO)C(=O)N[C@@H](CC(C)C)C(=O)N[C@@H](CCCCN)C(=O)N[C@@H](Cc1ccccc1)C(=O)N[C@H](C(=O)N[C@@H](CCC(=O)O)C(=O)N[C@@H](CCCCN)C(=O)N[C@@H](CO)C(=O)N[C@@H](CC(=O)O)C(=O)N[C@@H](CCCCN)C(=O)N[C@@H](CC(C)C)C(=O)N[C@@H](CC(C)C)C(=O)N[C@@H](CCC(=O)O)C(=O)N[C@@H](CC(N)=O)C(=O)N[C@H](C(=O)N[C@@H](CC(N)=O)C(=O)N[C@@H](CCCCN)C(=O)NCC(=O)N[C@@H](CCCCN)C(N)=O)C(C)C)[C@@H](C)CC)[C@@H](C)CC)C(C)C [Positive polypeptide 2, reference compound] (Ac-IEQVNKKIEQSLKFIEKSDKLLENVNKGK-NH2) | > 10 | > 0.3 | –
– | CC[C@H](C)[C@H](NC(=O)[C@H](Cc1ccccc1)NC(=O)[C@H](CCCCN)NC(=O)[C@H](CC(C)C)NC(=O)[C@H](CO)NC(=O)[C@H](CCC(N)=O)NC(=O)[C@H](CCC(=O)O)NC(=O)[C@@H](NC(=O)[C@H](CCCCN)NC(=O)[C@H](CCCCN)NC(=O)[C@H](CC(N)=O)NC(=O)[C@@H](NC(=O)[C@H](CCC(N)=O)NC(=O)[C@H](CCC(=O)O)NC(=O)[C@H](CC(C)C)NC(=O)[C@H](CO)NC(C)=O)C(C)C)[C@@H](C)CC)C(=O)N[C@@H](CCC(=O)O)C(=O)N[C@@H](CCCCN)C(=O)N[C@@H](CO)C(=O)N[C@@H](CC(=O)O)C(=O)N[C@@H](CCCCN)C(=O)N[C@@H](CC(C)C)C(=O)N[C@@H](CC(C)C)C(=O)N[C@@H](CCC(=O)O)C(=O)N[C@@H](CC(N)=O)C(=O)NCC(=O)N[C@@H](CO)C(=O)NCC(=O)N[C@@H](CO)C(=O)NCC(=O)N[C@@H](CCCCNC(=O)CCC(=O)OC1CCC2(C)C(=CCC3C2CCC2(C)C(C(C)CCCC(C)C)CCC32)C1)C(N)=O (some centres unmarked) [Positive polypeptide 1, reference compound] (Ac-SLEQVNKKIEQSLKFIEKSDKLLENGSGSGK(X1)-NH2) | 3.69 | 0.15 | –
– | Ac-WDEFDKKIEEVNKKIEESLKKIEESDKKLEEVNKKLGSGSGK(X1)-NH2 [Compound 11] | > 8 | 0.0991 | –
– | Ac-FDFDEFDASISQVNEKINESLAFIRLAFIRKSDELLEAAAKK-NH2 [Compound 24] | > 8 | 2.65 | –
– | Ac-WDEFDKKIEEVNKKIEESLKKIEESDKKLEEVNKKLEAAAKK(X1)-NH2 [Compound 9] | > 8 | 0.0957 | –
– | CC[C@H](C)[C@H](NC(=O)[C@H](CCCNC(=N)N)NC(=O)[C@H](CCCNC(=N)N)NC(=O)[C@H](CCCNC(=N)N)NC(=O)[C@H](CC(N)=O)NC(=O)[C@@H](NC(=O)[C@H](CCC(=O)O)NC(=O)[C@H](Cc1ccccc1)NC(C)=O)C(C)C)C(=O)N[C@@H](CCC(=O)O)C(=O)N[C@@H](CCC(N)=O)C(=O)N[C@@H](CO)C(=O)N[C@@H](CC(C)C)C(=O)N[C@@H](CCC(=O)O)C(=O)N[C@@H](CCCCN)C(=O)N[C@@H](CO)C(=O)N[C@@H](CC(C)C)C(=O)N[C@@H](CCC(=O)O)C(=O)N[C@@H](CO)C(=O)N[C@@H](CC(C)C)C(=O)N[C@@H](CCC(=O)O)C(=O)N[C@@H](CCC(=O)O)C(=O)N[C@@H](CCC(=O)O)C(=O)N[C@@H](CCC(=O)O)C(=O)N[C@@H](Cc1c[nH]cn1)C(=O)N[C@@H](CO)C(=O)N[C@@H](CC(=O)O)C(=O)N[C@@H](CCCCN)C(=O)N[C@@H](CCCCN)C(=O)N[C@@H](CC(C)C)C(=O)N[C@@H](Cc1c[nH]cn1)C(=O)N[C@@H](CC(N)=O)C(=O)N[C@@H](CCC(=O)O)C(=O)N[C@@H](CC(C)C)C(=O)N[C@@H](Cc1c[nH]cn1)C(N)=O [Compound 46] (Ac-FEVNRRRIEQSLEKSLESLEEEEHSDKKLHNELH-NH2) | > 8 | > 8 | –
1.36 | CC[C@H](C)[C@H](NC(=O)[C@H](CO)NC(=O)[C@H](C)NC(=O)[C@H](CC(=O)O)NC(=O)[C@H](Cc1ccccc1)NC(C)=O)C(=O)N[C@@H](CCC(=O)O)C(=O)N[C@@H](CCC(=O)O)C(=O)N[C@H](C(=O)N[C@@H](CC(N)=O)C(=O)N[C@@H](CCCNC(=N)N)C(=O)N[C@@H](CCCNC(=N)N)C(=O)N[C@H](C(=O)N[C@@H](CCC(=O)O)C(=O)N[C@@H](CCC(=O)O)C(=O)N[C@@H](CO)C(=O)N[C@@H](CC(C)C)C(=O)N[C@@H](CCCNC(=N)N)C(=O)N[C@@H](CCCNC(=N)N)C(=O)N[C@H](C(=O)N[C@@H](CCC(=O)O)C(=O)N[C@@H](CCC(=O)O)C(=O)N[C@@H](CO)C(=O)N[C@@H](CC(=O)O)C(=O)N[C@@H](CCCNC(=N)N)C(=O)N[C@@H](CCCNC(=N)N)C(=O)N[C@@H](CC(C)C)C(=O)N[C@@H](CCC(=O)O)C(=O)N[C@H](C(=O)N[C@@H](CC(N)=O)C(=O)N[C@@H](CCCCN)C(=O)N[C@@H](CCCCN)C(=O)N[C@@H](C)C(N)=O)C(C)C)[C@@H](C)CC)[C@@H](C)CC)C(C)C [Compound 1] (Ac-FDASIEEVNRRIEESLRRIEESDRRLEVNKKA-NH2) | – | – | > 8
– | CC[C@H](C)[C@H](NC(=O)[C@H](CCC(=O)O)NC(=O)[C@H](CCC(=O)O)NC(=O)[C@H](CC(C)C)NC(=O)[C@H](CO)NC(=O)[C@H](CCC(=O)O)NC(=O)[C@H](CCC(=O)O)NC(=O)[C@@H](NC(=O)[C@H](CCCCN)NC(=O)[C@H](CCC(=O)O)NC(=O)[C@H](CC(N)=O)NC(=O)[C@@H](NC(=O)[C@H](CCC(N)=O)NC(=O)[C@H](CC(N)=O)NC(=O)[C@@H](NC(=O)[C@H](CCCCN)NC(=O)[C@H](CCC(N)=O)NC(=O)[C@H](CC(N)=O)NC(=O)[C@H](Cc1ccccc1)NC(=O)[C@H](CCC(=O)O)NC(=O)[C@H](C)NC(=O)[C@H](Cc1ccccc1)NC(C)=O)[C@@H](C)CC)C(C)C)[C@@H](C)CC)C(=O)N[C@@H](CCCNC(=N)N)C(=O)N[C@@H](CCCCN)C(=O)N[C@@H](CO)C(=O)N[C@@H](CC(=O)O)C(=O)N[C@@H](CCC(=O)O)C(=O)N[C@@H](CCC(=O)O)C(=O)N[C@@H](CC(C)C)C(=O)N[C@@H](Cc1c[nH]cn1)C(=O)N[C@@H](CC(N)=O)C(=O)N[C@H](C(=O)N[C@@H](CC(N)=O)C(=O)N[C@@H](C)C(=O)N[C@H](C(=O)N[C@H](C(N)=O)[C@@H](C)O)[C@@H](C)O)C(C)C [Compound 8] (Ac-FAEFNQKINQVNEKIEESLEEIRKSDEELHNVNATT-NH2) | > 8 | 3.77 | –
> 8 | CC[C@H](C)[C@H](NC(=O)[C@H](CCCCN)NC(=O)[C@H](CC(C)C)NC(=O)[C@H](CC(C)C)NC(=O)[C@H](CO)NC(=O)[C@H](C)NC(=O)[C@H](CC(=O)O)NC(=O)[C@H](Cc1ccccc1)NC(C)=O)C(=O)N[C@@H](CCC(=O)O)C(=O)N[C@@H](CCC(=O)O)C(=O)N[C@@H](CCC(=O)O)C(=O)N[C@@H](CCCCN)C(=O)N[C@@H](CCCCN)C(=O)N[C@@H](CCCCN)C(=O)N[C@H](C(=O)N[C@@H](CCC(=O)O)C(=O)N[C@@H](CCC(=O)O)C(=O)N[C@@H](CC(C)C)C(=O)N[C@@H](CC(C)C)C(=O)N[C@@H](CCCCN)C(=O)N[C@@H](CC(C)C)C(=O)N[C@@H](Cc1c[nH]cn1)C(=O)N[C@@H](CC(N)=O)C(=O)N[C@@H](CCC(=O)O)C(=O)N[C@@H](CO)C(=O)N[C@@H](CC(=O)O)C(=O)N[C@@H](CCCCN)C(=O)N[C@@H](CCCCN)C(=O)N[C@@H](CC(C)C)C(=O)N[C@@H](CCC(=O)O)C(=O)N[C@@H](CCC(=O)O)C(=O)N[C@H](C(N)=O)C(C)C)[C@@H](C)CC [Compound 4] (Ac-FDASLLKIEEEKKKIEELLKLHNESDKKLEEV-NH2) | – | – | > 8
– | CC[C@H](C)[C@H](NC(=O)[C@H](CO)NC(=O)[C@H](C)NC(=O)[C@H](CC(=O)O)NC(=O)[C@H](Cc1ccccc1)NC(=O)[C@H](CCC(=O)O)NC(=O)[C@H](CC(=O)O)NC(=O)[C@H](Cc1c[nH]c2ccccc12)NC(C)=O)C(=O)N[C@@H](CO)C(=O)N[C@@H](CCC(N)=O)C(=O)N[C@@H](CC(N)=O)C(=O)N[C@@H](CCC(=O)O)C(=O)N[C@@H](CCCCN)C(=O)N[C@H](C(=O)N[C@@H](CC(N)=O)C(=O)N[C@@H](CCC(N)=O)C(=O)N[C@@H](CO)C(=O)N[C@@H](CC(C)C)C(=O)N[C@@H](CCC(=O)O)C(=O)N[C@@H](CCC(=O)O)C(=O)N[C@H](C(=O)N[C@@H](CCCNC(=N)N)C(=O)N[C@@H](CCCCN)C(=O)N[C@@H](CO)C(=O)N[C@@H](CC(=O)O)C(=O)N[C@@H](CCC(=O)O)C(=O)N[C@@H](CC(C)C)C(=O)N[C@@H](CC(C)C)C(=O)N[C@@H](Cc1c[nH]cn1)C(=O)N[C@@H](CC(N)=O)C(=O)N[C@@H](CC(N)=O)C(=O)N[C@@H](C)C(=O)N[C@@H](CC(C)C)C(=O)N[C@@H](CCC(=O)O)C(=O)N[C@@H](C)C(=O)N[C@@H](C)C(=O)N[C@@H](C)C(=O)N[C@@H](CCCCN)C(=O)N[C@@H](CCCCNC(=O)CCC(=O)OC1CCC2(C)C(=CCC3C2CCC2(C)C(C(C)CCCC(C)C)CCC32)C1)C(N)=O)[C@@H](C)CC)[C@@H](C)CC (some centres unmarked) [Compound 39] (Ac-WDEFDASISQNEKINQSLEEIRKSDELLHNNALEAAAKK(X1)-NH2) | > 100 | 0.113 | –

From patent US20260250325A1, “Antiviral Polypeptide Membrane Fusion Inhibitor, and Preparation Method and Application Thereof” (priority 2025, published 2026)
